We go through 14 compounds from PubChem BioAssay (NCI).

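Method: 48-hour compound exposure of cells in 96-well plates, five concentrations, linear interpolation of endpoints. GI50 = concentration required for 50% inhibition of growth. Definition used: TGI = concentration required for complete inhibition of growth.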

For one assay, the system named is CCRF-CEM leukemia. As to the kind of experiment: NCI anticancer screen, dose series, 48 h.
Turning to `C=CCOc1cccc(/C=C2\SC(=Nc3ccc(O)cc3)NC2=O)c1`, the GI50 was 0.402 µM and the TGI was over 100 µM.
On the same counts, the results for `Oc1cccc2ccc(N/N=C/c3cc(CN4CCCCC4)c(O)c4ncccc34)nc12` are 0.0558 µM and 10.8 µM.
Turning to `COc1cccc(-n2ncc3c(N/N=C/c4ccc(C(=O)NCCN(C)C)cc4)ncnc32)c1`, the GI50 was 4.17 µM and the TGI turned out to be 11.2 µM.
`O=C(NCCCCCCNC(=O)n1cc(F)c(=O)[nH]c1=O)NCCCOCCOCCOCCOCCOCCOCCOCCOCCOCCOCCOCCOCCOCCOCCOCCOCCOCCOCCOCCOCCOCCCNC(=O)C(O)C(O)C(O)C(O)CO` (stereo not drawn) had a TGI of over 100 µM.
As for `COc1cc(C2CC(c3ccc4c(c3)OCO4)=NN2C=O)cc(OC)c1OC` (stereo not drawn), the GI50 was 2.48 µM and the TGI is over 100 µM.
Compound `CCCC(=O)OC1C(C(O)CO)OC2OC(C)(C)OC21` (stereo not drawn) gave a TGI of under 3.16 µM.
In the case of `COC(=O)[C@H](C[C@H](Cc1ccccc1)NC(=O)c1csc([C@@H](C[C@H](C(C)C)N(C)C(=O)[C@@H](NC(=O)[C@H]2CCCCN2C)C(C)C)OC(C)=O)n1)NC(=O)OCc1ccccc1`, the GI50 was under 0.0009 µM and the TGI is over 9 µM.
The matching figures for `O=C1/C(=C\c2c[nH]c3ccccc23)c2ccccc2N1c1c(Cl)cccc1Cl`: 2.42 µM and 7.23 µM.
Take `Nc1ccccc1C#C/C=C\C#Cc1cccs1`: the GI50 is 0.295 µM and the TGI came out at 2.2 µM.
On the same counts, the results for `COc1ccc2c(c1)cn1c3ccc(O)cc3nc(N)c21` are 0.163 µM and over 50.9 µM.
The matching figures for `OC(c1cc(-c2ccccc2)nc2ccc(Cl)cc12)C1CCCCN1` (stereo not drawn): 2.59 µM and 7.69 µM.
For `CC#C[C@]1(O)CC[C@H]2[C@@H]3CCC4=CC(=O)CCC4=C3[C@@H](c3ccc4c(c3)OCO4)C[C@@]21C`, the GI50 was 103 µM and the TGI was determined as 619 µM.
Take `COc1ccc(OC)c(/C=C2\SC(=S)NC2=O)c1`: the GI50 was 42.4 µM and the TGI is over 100 µM.
For `O=C1c2cccnc2C(=O)c2nc3cc(N4CCN(C5CC5)CC4)ccc3nc21`, the GI50 was 2.56 µM and the TGI came to 9.83 µM.

The test system of a further assay is EKVX NSCLC. As to the kind of experiment: NCI anticancer screen, dose series, 48 h.
In the case of `C=CCOc1cccc(/C=C2\SC(=Nc3ccc(O)cc3)NC2=O)c1`, the GI50 was 1.47 µM and the TGI is over 100 µM.
The matching figures for `Oc1cccc2ccc(N/N=C/c3cc(CN4CCCCC4)c(O)c4ncccc34)nc12`: 0.299 µM and 14.7 µM.
With `COc1cccc(-n2ncc3c(N/N=C/c4ccc(C(=O)NCCN(C)C)cc4)ncnc32)c1`, the GI50 was 4.31 µM and the TGI worked out at 8.57 µM.
Compound `O=C(NCCCCCCNC(=O)n1cc(F)c(=O)[nH]c1=O)NCCCOCCOCCOCCOCCOCCOCCOCCOCCOCCOCCOCCOCCOCCOCCOCCOCCOCCOCCOCCOCCOCCCNC(=O)C(O)C(O)C(O)C(O)CO` (stereo not drawn) gave a TGI of over 100 µM.
Consider `COc1cc(C2CC(c3ccc4c(c3)OCO4)=NN2C=O)cc(OC)c1OC` (stereo not drawn), for which the GI50 is 3.74 µM and the TGI is over 100 µM.
In the case of `CCCC(=O)OC1C(C(O)CO)OC2OC(C)(C)OC21` (stereo not drawn), the TGI was over 100 µM.
For the compound `COC(=O)[C@H](C[C@H](Cc1ccccc1)NC(=O)c1csc([C@@H](C[C@H](C(C)C)N(C)C(=O)[C@@H](NC(=O)[C@H]2CCCCN2C)C(C)C)OC(C)=O)n1)NC(=O)OCc1ccccc1`, the GI50 is 0.00843 µM and the TGI was over 9 µM.
As to `O=C1/C(=C\c2c[nH]c3ccccc23)c2ccccc2N1c1c(Cl)cccc1Cl`, the GI50 was 1.63 µM and the TGI came out at 4.91 µM.
The matching figures for `Nc1ccccc1C#C/C=C\C#Cc1cccs1`: 12.7 µM and 35.1 µM.
Turning to `COc1ccc2c(c1)cn1c3ccc(O)cc3nc(N)c21`, the GI50 was 1.51 µM and the TGI was 18.5 µM.
The matching figures for `OC(c1cc(-c2ccccc2)nc2ccc(Cl)cc12)C1CCCCN1` (stereo not drawn): 2.36 µM and 6.27 µM.
For `CC#C[C@]1(O)CC[C@H]2[C@@H]3CCC4=CC(=O)CCC4=C3[C@@H](c3ccc4c(c3)OCO4)C[C@@]21C`, the GI50 was 40.4 µM and the TGI was 813 µM.
In the case of `COc1ccc(OC)c(/C=C2\SC(=S)NC2=O)c1`, the GI50 was 14.2 µM and the TGI amounted to 42.1 µM.
For `O=C1c2cccnc2C(=O)c2nc3cc(N4CCN(C5CC5)CC4)ccc3nc21`, the GI50 is 1.68 µM and the TGI is 4.02 µM.

A further assay deals with HL-60(TB) leukemia. As to the kind of experiment: NCI anticancer screen, dose series, 48 h.
Turning to `C=CCOc1cccc(/C=C2\SC(=Nc3ccc(O)cc3)NC2=O)c1`, the GI50 is 0.241 µM and the TGI was found to be 0.749 µM.
On the same counts, the results for `Oc1cccc2ccc(N/N=C/c3cc(CN4CCCCC4)c(O)c4ncccc34)nc12` are 0.0345 µM and 1.29 µM.
For `COc1cccc(-n2ncc3c(N/N=C/c4ccc(C(=O)NCCN(C)C)cc4)ncnc32)c1`, the GI50 was 5.58 µM and the TGI amounted to 10.5 µM.
With `O=C(NCCCCCCNC(=O)n1cc(F)c(=O)[nH]c1=O)NCCCOCCOCCOCCOCCOCCOCCOCCOCCOCCOCCOCCOCCOCCOCCOCCOCCOCCOCCOCCOCCOCCCNC(=O)C(O)C(O)C(O)C(O)CO` (stereo not drawn), the TGI is over 100 µM.
Regarding `COc1cc(C2CC(c3ccc4c(c3)OCO4)=NN2C=O)cc(OC)c1OC` (stereo not drawn), the GI50 was 0.935 µM.
`CCCC(=O)OC1C(C(O)CO)OC2OC(C)(C)OC21` (stereo not drawn) had a TGI of under 3.16 µM.
Take `COC(=O)[C@H](C[C@H](Cc1ccccc1)NC(=O)c1csc([C@@H](C[C@H](C(C)C)N(C)C(=O)[C@@H](NC(=O)[C@H]2CCCCN2C)C(C)C)OC(C)=O)n1)NC(=O)OCc1ccccc1`: the GI50 is under 0.0009 µM and the TGI stood at 0.00178 µM.
Turning to `O=C1/C(=C\c2c[nH]c3ccccc23)c2ccccc2N1c1c(Cl)cccc1Cl`, the GI50 is 1.55 µM and the TGI amounted to 3.82 µM.
The matching figures for `Nc1ccccc1C#C/C=C\C#Cc1cccs1`: 0.696 µM and 12.3 µM.
With `COc1ccc2c(c1)cn1c3ccc(O)cc3nc(N)c21`, the GI50 is 0.765 µM and the TGI is 31.3 µM.
For the compound `OC(c1cc(-c2ccccc2)nc2ccc(Cl)cc12)C1CCCCN1` (stereo not drawn), the GI50 was 2.26 µM and the TGI turned out to be 4.82 µM.
In the case of `CC#C[C@]1(O)CC[C@H]2[C@@H]3CCC4=CC(=O)CCC4=C3[C@@H](c3ccc4c(c3)OCO4)C[C@@]21C`, the GI50 was 47.5 µM and the TGI is 399 µM.
For the compound `COc1ccc(OC)c(/C=C2\SC(=S)NC2=O)c1`, the GI50 was 58 µM and the TGI was over 100 µM.
As for `O=C1c2cccnc2C(=O)c2nc3cc(N4CCN(C5CC5)CC4)ccc3nc21`, the GI50 was 2.37 µM and the TGI amounted to 7.29 µM.

For another assay, the system named is MDA-MB-435. As to the kind of experiment: NCI anticancer screen, dose series, 48 h.
Regarding `C=CCOc1cccc(/C=C2\SC(=Nc3ccc(O)cc3)NC2=O)c1`, the GI50 is 0.155 µM and the TGI amounted to 0.315 µM.
On the same counts, the results for `Oc1cccc2ccc(N/N=C/c3cc(CN4CCCCC4)c(O)c4ncccc34)nc12` are 0.0444 µM and 1.73 µM.
The matching figures for `COc1cccc(-n2ncc3c(N/N=C/c4ccc(C(=O)NCCN(C)C)cc4)ncnc32)c1`: 1.93 µM and 5.81 µM.
For `O=C(NCCCCCCNC(=O)n1cc(F)c(=O)[nH]c1=O)NCCCOCCOCCOCCOCCOCCOCCOCCOCCOCCOCCOCCOCCOCCOCCOCCOCCOCCOCCOCCOCCOCCCNC(=O)C(O)C(O)C(O)C(O)CO` (stereo not drawn), the TGI is over 100 µM.
Take `COc1cc(C2CC(c3ccc4c(c3)OCO4)=NN2C=O)cc(OC)c1OC` (stereo not drawn): the GI50 is 0.26 µM and the TGI came out at 1.13 µM.
`CCCC(=O)OC1C(C(O)CO)OC2OC(C)(C)OC21` (stereo not drawn) displayed a TGI of over 100 µM.
In the case of `COC(=O)[C@H](C[C@H](Cc1ccccc1)NC(=O)c1csc([C@@H](C[C@H](C(C)C)N(C)C(=O)[C@@H](NC(=O)[C@H]2CCCCN2C)C(C)C)OC(C)=O)n1)NC(=O)OCc1ccccc1`, the GI50 is under 0.0009 µM and the TGI is under 0.0009 µM.
Take `O=C1/C(=C\c2c[nH]c3ccccc23)c2ccccc2N1c1c(Cl)cccc1Cl`: the GI50 is 1.77 µM and the TGI was 3.57 µM.
The matching figures for `Nc1ccccc1C#C/C=C\C#Cc1cccs1`: 2.81 µM and 12.2 µM.
On the same counts, the results for `COc1ccc2c(c1)cn1c3ccc(O)cc3nc(N)c21` are 0.0217 µM and 0.0749 µM.
`OC(c1cc(-c2ccccc2)nc2ccc(Cl)cc12)C1CCCCN1` (stereo not drawn): the GI50 is 1.73 µM and the TGI amounted to 3.29 µM.
For the compound `CC#C[C@]1(O)CC[C@H]2[C@@H]3CCC4=CC(=O)CCC4=C3[C@@H](c3ccc4c(c3)OCO4)C[C@@]21C`, the GI50 was 106 µM and the TGI stood at 390 µM.
Take `COc1ccc(OC)c(/C=C2\SC(=S)NC2=O)c1`: the GI50 is 39 µM and the TGI was over 100 µM.
For the compound `O=C1c2cccnc2C(=O)c2nc3cc(N4CCN(C5CC5)CC4)ccc3nc21`, the GI50 is 0.169 µM and the TGI stood at 0.328 µM.

The next assay deals with OVCAR-3 ovarian. As to the kind of experiment: NCI anticancer screen, dose series, 48 h.
As for `C=CCOc1cccc(/C=C2\SC(=Nc3ccc(O)cc3)NC2=O)c1`, the GI50 is 0.284 µM and the TGI is 3.15 µM.
On to `Oc1cccc2ccc(N/N=C/c3cc(CN4CCCCC4)c(O)c4ncccc34)nc12`, for which the GI50 is 0.0858 µM and the TGI was found to be 1.74 µM.
In the case of `COc1cccc(-n2ncc3c(N/N=C/c4ccc(C(=O)NCCN(C)C)cc4)ncnc32)c1`, the GI50 was 3.31 µM and the TGI came out at 6.71 µM.
As to `O=C(NCCCCCCNC(=O)n1cc(F)c(=O)[nH]c1=O)NCCCOCCOCCOCCOCCOCCOCCOCCOCCOCCOCCOCCOCCOCCOCCOCCOCCOCCOCCOCCOCCOCCCNC(=O)C(O)C(O)C(O)C(O)CO` (stereo not drawn), the TGI was over 100 µM.
In the case of `COc1cc(C2CC(c3ccc4c(c3)OCO4)=NN2C=O)cc(OC)c1OC` (stereo not drawn), the GI50 is 0.965 µM and the TGI was 3.25 µM.
Take `CCCC(=O)OC1C(C(O)CO)OC2OC(C)(C)OC21` (stereo not drawn): the TGI was over 100 µM.
With `COC(=O)[C@H](C[C@H](Cc1ccccc1)NC(=O)c1csc([C@@H](C[C@H](C(C)C)N(C)C(=O)[C@@H](NC(=O)[C@H]2CCCCN2C)C(C)C)OC(C)=O)n1)NC(=O)OCc1ccccc1`, the GI50 is under 0.0009 µM.
In the case of `O=C1/C(=C\c2c[nH]c3ccccc23)c2ccccc2N1c1c(Cl)cccc1Cl`, the GI50 was 1.83 µM and the TGI amounted to 3.78 µM.
`Nc1ccccc1C#C/C=C\C#Cc1cccs1`: the GI50 was 4.85 µM and the TGI amounted to 24.8 µM.
The matching figures for `COc1ccc2c(c1)cn1c3ccc(O)cc3nc(N)c21`: 0.0757 µM and 2.39 µM.
Consider `OC(c1cc(-c2ccccc2)nc2ccc(Cl)cc12)C1CCCCN1` (stereo not drawn), for which the GI50 is 2.15 µM and the TGI worked out at 5.15 µM.
On the same counts, the results for `CC#C[C@]1(O)CC[C@H]2[C@@H]3CCC4=CC(=O)CCC4=C3[C@@H](c3ccc4c(c3)OCO4)C[C@@]21C` are 110 µM and 320 µM.
The matching figures for `COc1ccc(OC)c(/C=C2\SC(=S)NC2=O)c1`: 36.7 µM and over 100 µM.
On the same counts, the results for `O=C1c2cccnc2C(=O)c2nc3cc(N4CCN(C5CC5)CC4)ccc3nc21` are 1.24 µM and 3.67 µM.
